Publication PMC6271349, “Synthesis and Biological Evaluation of 2-Phenoxyacetamide Analogues, a Novel Class of Potent and Selective Monoamine Oxidase Inhibitors” (Molecules, 2014)
Where two headings read alike, the source gives them in different places.

Key:
Assay type in all cases: biochemical
[1] = molecular target: T1, Human recombinant Monoamine Oxidase A (Homo sapiens, UniProt P21397); test: MAOs inhibitory assay (fluorescence-based microplate), MAO-A; details: for SI (selectivity index): SI = (IC50 of MAO-B)/(IC50 of MAO-A); for IC50: recombinant enzyme
T1 construct: purchased Sigma Aldrich M7316
T1 sequence (P21397 1-527): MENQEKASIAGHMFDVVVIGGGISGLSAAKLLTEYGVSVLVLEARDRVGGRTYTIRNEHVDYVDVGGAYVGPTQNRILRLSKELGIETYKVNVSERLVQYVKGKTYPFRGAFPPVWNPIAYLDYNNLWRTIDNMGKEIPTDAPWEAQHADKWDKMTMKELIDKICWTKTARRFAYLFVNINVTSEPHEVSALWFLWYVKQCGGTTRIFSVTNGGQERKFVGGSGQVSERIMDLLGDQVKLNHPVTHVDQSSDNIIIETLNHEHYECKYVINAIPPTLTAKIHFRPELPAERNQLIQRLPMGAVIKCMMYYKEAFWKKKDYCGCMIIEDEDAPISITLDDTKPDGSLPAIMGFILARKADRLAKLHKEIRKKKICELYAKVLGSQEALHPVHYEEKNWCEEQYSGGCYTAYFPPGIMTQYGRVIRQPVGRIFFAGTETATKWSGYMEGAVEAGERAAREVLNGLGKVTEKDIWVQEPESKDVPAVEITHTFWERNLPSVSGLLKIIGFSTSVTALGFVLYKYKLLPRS
Description: (§1) All of these compounds were evaluated for their inhibitory abilities towards MAOs. The inhibition activities against MAO-A and MAO-B of the synthesized compounds were investigated by our reported method.
(§2) Silica gel (100–200 mesh, Qingdao Haiyang Chemical Co., Qingdao, China) was used for flash column chromatography. Analytical thin-layer chromatography was performed with GF254 silica gel. ^1H-NMR spectra were recorded on a Bruker Avance 300 MHz apparatus. HR-ESI-MS and HR-EI analysis were measured on a Bruker micrOTOF-QII and Waters GCT Premier GC-TOF-MS spectrometer, respectively. All chemicals were purchased from the Eastern China Chemical Co (Hangzhou, China). All fluorescent data was recorded on Spectrum M2 (Molecular Device Company). Human recombinant Monoamine Oxidase A (M7316) and B (M7441) (5 mg/mL) were purchased from Sigma Aldrich. Pierce BCA protein assay kit (23227) was purchased from Thermo Scientific.
(§3) MAO IC50 values were determined using our reported fluorescence-based microplate assay. […] The fluorescent signals were measured at λex 360 nm and λem 460 nm on a Spectrum-M2 spectrofluorometer.

[2] = molecular target: T2, Human recombinant Monoamine Oxidase B (Homo sapiens, UniProt P27338); test: MAOs inhibitory assay (fluorescence-based microplate), MAO-B; details: recombinant enzyme; inhibitor incubated 37 °C 3 h, borate buffer pH 8.4; mean IC50
T2 construct: purchased Sigma Aldrich M7441
T2 sequence (P27338 1-520): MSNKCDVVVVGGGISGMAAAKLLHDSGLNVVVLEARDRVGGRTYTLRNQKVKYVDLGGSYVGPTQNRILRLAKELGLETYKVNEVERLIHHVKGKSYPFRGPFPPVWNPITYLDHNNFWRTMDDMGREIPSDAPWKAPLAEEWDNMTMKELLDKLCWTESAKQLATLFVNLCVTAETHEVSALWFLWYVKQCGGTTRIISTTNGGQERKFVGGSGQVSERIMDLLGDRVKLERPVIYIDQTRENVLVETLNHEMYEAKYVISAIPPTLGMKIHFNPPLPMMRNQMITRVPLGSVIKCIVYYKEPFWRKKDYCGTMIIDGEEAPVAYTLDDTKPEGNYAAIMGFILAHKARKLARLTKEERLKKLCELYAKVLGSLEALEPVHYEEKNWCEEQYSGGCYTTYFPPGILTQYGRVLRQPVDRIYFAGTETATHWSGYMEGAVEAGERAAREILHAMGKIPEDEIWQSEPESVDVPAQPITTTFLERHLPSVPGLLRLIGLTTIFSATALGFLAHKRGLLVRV
Description: as §1, §2, §3

MAO-A = molecular target: T3, MAO-A (Homo sapiens, UniProt P21397); test: Reversibility of MAO-A inhibition (repeated washing method); details: for inhibition at 0.1 µM: inhibitor 100 nM; for reversibility of MAO-A inhibition: repeated washing method
T3 construct: purchased Sigma Aldrich M7316
T3 sequence (P21397 1-527): T1 sequence (P21397 1-527)
Description: (§4) Reversibility of the MAO inhibition with derivatives of acetamides was evaluated by a reported method. […] After incubating for 2 h, an aliquot was stored at 4 °C for the measurement of MAO-A and -B activity. The remaining reaction solution was placed in an Ultrafree-0.5 centrifugal tube with a 30 kDa Biomax membrane (Millipore) and centrifuged at 9000 g for 20 min at 4 °C. The enzyme retained in the membrane was resuspended in a sodium phosphate buffer and centrifuged two successive times. Then, the enzyme retained in the membrane was resuspended in PBS ([…]) and an aliquot of this suspension was used for MAO-A and -B activity measurement. In order to define 100% MAO activity, control experiments were performed simultaneously by replacing the inhibitors with appropriate dilutions of the vehicles. The corresponding values of percent MAO isoforms inhibition (with and without repeated washing) were calculated based on the control experiments.

MAO-B = molecular target: T4, MAO-B (Homo sapiens, UniProt P27338); test: Reversibility of MAO-B inhibition (repeated washing method); details: for inhibition at 0.1 µM: inhibitor 100 nM; for reversibility of MAO-B inhibition: repeated washing method
T4 construct: purchased Sigma Aldrich M7441
T4 sequence (P27338 1-520): T2 sequence (P27338 1-520)
Description: as §4

[3] = molecular target: T5, native MAO-A in SH-SY5Y (neuroblastoma cells) lysate (Homo sapiens, UniProt P21397); test: MAO inhibitory activity in SH-SY5Y cell lysate (endogenous MAO-A); details: for IC50: SH-SY5Y lysate (only endogenous MAO-A activity), repeated three times; for times more potent in SH-SY5Y lysate relative to HepG2 lysate: ratio of lysate IC50 values (HepG2/SH-SY5Y)
T5 construct: endogenous in cells; host or cells: SH-SY5Y (neuroblastoma cells) lysate
T5 sequence (P21397 1-527): T1 sequence (P21397 1-527)
Description: (§5) Compounds 12, 21, 22, 25 were chosen for comparison due to their excellent inhibitory activities, and the results were shown in Table 2. […] This is most likely due to the instability of imine group in cell lysates.
as §3
(§6) Cells were cultured at 37 °C and 5% CO2 in RPMI-1640 media containing 100 units/mL penicillin, 100 μg/mL streptomycin, and 10% FBS. For lysis, cells were resuspended at 5 × 10^7 cells/mL in lysis buffer (42.3 mM PBS, 126 mM NaCl, 1.27 mM MgCl2, 0.85 mM EDTA, 1 mM PMSF, 0.95% Triton X-100, 9.5% glycerol, 4% 25× complete protease inhibitor, pH 7.4). The cells were vortexed to mix and keep on ice for 30 min, and then sonicated to break the cells (180 watts). The cell lysate was then clarified by ultracentrifugation at 4 °C for 30 min at 45,000. Total protein concentration was determined via a Bradford Protein Assay Kit (Bio-Rad) and cell lysates were stored at −80 °C until further use.

[4] = molecular target: T6, native MAO-B in HepG2 (human hepatocellular liver carcinoma cell) lysate (Homo sapiens, UniProt P27338); test: MAO inhibitory activity in HepG2 cell lysate (endogenous MAO-B); details: HepG2 lysate (only endogenous MAO-B activity); repeated three times
T6 construct: endogenous in cells; host or cells: HepG2 (human hepatocellular liver carcinoma cell) lysate
T6 sequence (P27338 1-520): T2 sequence (P27338 1-520)
Description: as §5, §3, §6

[5] = inhibitor incubated 37 °C 3 h, borate buffer pH 8.4, mean IC50, read-out: IC50 (μM) MAO-A
[6] = after repeated washing, read-out: MAO-A Inhibiton (%) After Washing
[7] = before washing, read-out: MAO-A Inhibiton (%) Before Washing

Row | Structure (SMILES) | SI (selectivity index) [1] | IC50 [1, 5] [µM] | IC50 [2] [µM] | further results
1 | NC(=O)COc1ccccc1Cl [Compound 5] | 7.08 | 98 | 694 | –
2 | Cc1ccccc1OCC(N)=O [Compound 9] | 25.5 | 26 | 663 | –
3 | COc1ccccc1OCC(N)=O [Compound 11] | 8.07 | 96 | 775 | –
4 | NC(=O)COc1ccccc1C(=O)O [Compound 13] | 0.82 | 217 | 177 | –
5 | COC(=O)c1ccccc1OCC(N)=O [Compound 14] | 0.91 | 108 | 98 | –
6 | NC(=O)CSc1ccccc1 [Compound 17] | 3.87 | 166 | 642 | –
7 | Cc1ccc(SCC(N)=O)cc1C [Compound 18] | – | 292 | 366 | –
8 | NC(=O)COc1ccccc1C1=NCCN1 [Compound 20] | 3.84 | 186 | 714 | –
9 | C#CCN=Cc1ccccc1OCC(N)=O [Compound 25] | 2.59 | 0.068 | 0.176 | IC50 [3]: 0.88 µM; times more potent in SH-SY5Y lysate relative to HepG2 lysate [3]: 2.1 times; IC50 [4]: 1.81 µM
10 | C[C@H](NCc1ccc(OCc2cccc(F)c2)cc1)C(N)=O [Safinamide, reference compound] | – | – | – | enzyme activity recovered after repeated washing (MAO-A) (MAO-A; after repeated washing): more than 80%; inhibition at 0.1 µM (MAO-A; [6]): 9.8%; inhibition at 0.1 µM (MAO-A; [7]): 36.1%; reversibility of MAO-A inhibition (MAO-A): reversible; enzyme activity recovered after repeated washing (MAO-B) (MAO-B; after repeated washing): more than 80%; reversibility of MAO-B inhibition (MAO-B): reversible

Now from value to molecule, other results behind:

Row | SI (selectivity index) [1] | IC50 [1, 5] [µM] | IC50 [2] [µM] | Structure (SMILES) | further results
11 | 11.27 | 69 | 778 | NC(=O)COc1ccccc1 [Compound 1] | –
12 | 3.64 | 149 | 542 | NC(=O)COc1ccc2ccccc2c1 [Compound 2] | –
13 | 2.77 | 92 | 255 | NC(=O)COc1ccc(F)cc1 [Compound 3] | –
14 | 0.41 | 490 | 202 | NC(=O)COc1ccc(Cl)cc1 [Compound 4] | –
15 | 5.13 | 89 | 457 | NC(=O)COc1ccc(C=O)cc1 [Compound 6] | –
16 | 3.94 | 142 | 559 | NC(=O)COc1ccccc1C=O [Compound 7] | –
17 | 4.73 | 113 | 534 | Cc1ccc(OCC(N)=O)cc1C [Compound 8] | –
18 | 180 | 3 | 541 | Cc1ccc(OCC(N)=O)cc1 [Compound 10] | –
19 | 245 | 4 | 980 | COc1ccc(OCC(N)=O)cc1 [Compound 12, 2-(4-Methoxyphenoxy)acetamide] | enzyme activity recovered after repeated washing (MAO-A) (MAO-A; after repeated washing): more than 80%; inhibition at 0.1 µM (MAO-A; [6]): 12.5%; inhibition at 0.1 µM (MAO-A; [7]): 88.7%; reversibility of MAO-A inhibition (MAO-A): reversible; enzyme activity recovered after repeated washing (MAO-B) (MAO-B; after repeated washing): more than 80%; inhibition at 0.1 µM (MAO-B; after repeated washing, read-out: MAO-B Inhibiton (%) After Washing): 8.6%; inhibition at 0.1 µM (MAO-B; before washing, read-out: MAO-B Inhibiton (%) Before Washing): 96.9%; reversibility of MAO-B inhibition (MAO-B): reversible; IC50 [3]: 5.4 µM
20 | 1.51 | 196 | 296 | CC(C)(C)OC(=O)Nc1ccc(OCC(N)=O)cc1 [Compound 15] | –
21 | 9.07 | 61 | 553 | CC(=O)Nc1ccc(OCC(N)=O)cc1 [Compound 16] | –
22 | 8.30 | 61 | 506 | NC(=O)COc1ccc(C2=NCCN2)cc1 [Compound 19] | –
23 | 4.22 | – | 0.076 | C#CCN=Cc1ccc(OCC(N)=O)cc1 [Compound 21, 2-(4-((prop-2-ynylimino)methyl)phenoxy)acetamide] | IC50 ([1]; read-out: IC50 value (MAO-A)): 0.018 µM; IC50 [3]: 0.18 µM; times more potent in SH-SY5Y lysate relative to HepG2 lysate [3]: 2.3 times; IC50 [4]: 0.41 µM
24 | 5.99 | 96 | 575 | NC(=O)COc1ccc(C=NCc2ccccc2)cc1 [Compound 23] | –
